The values that follow come from patent US12662451B2, “Chemical compounds and uses thereof” (GLAXOSMITHKLINE INTELLECTUAL PROPERTY (NO.4) LIMITED, priority 2023, dated 2026).

Data set [1] addresses T1, recombinant full-length WRN protein (1-1432) (Homo sapiens, UniProt Q14191).
T1 construct: recombinant full-length WRN protein (1-1432)
In words: WRN unwinding activity, fluorogenic 384-well assay (Example A). The format is biochemical. The following applies: WRN unwinding activity, 4 hr; Table 2; read-out: 4 hr UNW pIC50 (converted). In outline: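 200 pM enzyme (2× stock) preincubated with compound 4 h at ambient temperature, then 200 μM ATP and 12 nM quenched TAMRA-labelled dsDNA (2× stocks) added for 60 min; EDTA-quenched. Buffer 25 mM Tris pH 8.0, 5 mM NaCl, 2 mM MgCl2. Fluorescence at 525/598 nm; pIC50 from four-parameter fit.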

In data set [2] the test system is SW48 human colorectal cancer cells (MSI-H cancer cells). In words: SW48 cell viability, CellTiter-Glo, 120 hours (Example B). The note with it: Table 2; for CC50: Homo sapiens, SW48, 120 h, read-out: SW48 pCC50, SW48 cell viability, 120 hours incubation (converted).

T1 sequence (Q14191 whole entry): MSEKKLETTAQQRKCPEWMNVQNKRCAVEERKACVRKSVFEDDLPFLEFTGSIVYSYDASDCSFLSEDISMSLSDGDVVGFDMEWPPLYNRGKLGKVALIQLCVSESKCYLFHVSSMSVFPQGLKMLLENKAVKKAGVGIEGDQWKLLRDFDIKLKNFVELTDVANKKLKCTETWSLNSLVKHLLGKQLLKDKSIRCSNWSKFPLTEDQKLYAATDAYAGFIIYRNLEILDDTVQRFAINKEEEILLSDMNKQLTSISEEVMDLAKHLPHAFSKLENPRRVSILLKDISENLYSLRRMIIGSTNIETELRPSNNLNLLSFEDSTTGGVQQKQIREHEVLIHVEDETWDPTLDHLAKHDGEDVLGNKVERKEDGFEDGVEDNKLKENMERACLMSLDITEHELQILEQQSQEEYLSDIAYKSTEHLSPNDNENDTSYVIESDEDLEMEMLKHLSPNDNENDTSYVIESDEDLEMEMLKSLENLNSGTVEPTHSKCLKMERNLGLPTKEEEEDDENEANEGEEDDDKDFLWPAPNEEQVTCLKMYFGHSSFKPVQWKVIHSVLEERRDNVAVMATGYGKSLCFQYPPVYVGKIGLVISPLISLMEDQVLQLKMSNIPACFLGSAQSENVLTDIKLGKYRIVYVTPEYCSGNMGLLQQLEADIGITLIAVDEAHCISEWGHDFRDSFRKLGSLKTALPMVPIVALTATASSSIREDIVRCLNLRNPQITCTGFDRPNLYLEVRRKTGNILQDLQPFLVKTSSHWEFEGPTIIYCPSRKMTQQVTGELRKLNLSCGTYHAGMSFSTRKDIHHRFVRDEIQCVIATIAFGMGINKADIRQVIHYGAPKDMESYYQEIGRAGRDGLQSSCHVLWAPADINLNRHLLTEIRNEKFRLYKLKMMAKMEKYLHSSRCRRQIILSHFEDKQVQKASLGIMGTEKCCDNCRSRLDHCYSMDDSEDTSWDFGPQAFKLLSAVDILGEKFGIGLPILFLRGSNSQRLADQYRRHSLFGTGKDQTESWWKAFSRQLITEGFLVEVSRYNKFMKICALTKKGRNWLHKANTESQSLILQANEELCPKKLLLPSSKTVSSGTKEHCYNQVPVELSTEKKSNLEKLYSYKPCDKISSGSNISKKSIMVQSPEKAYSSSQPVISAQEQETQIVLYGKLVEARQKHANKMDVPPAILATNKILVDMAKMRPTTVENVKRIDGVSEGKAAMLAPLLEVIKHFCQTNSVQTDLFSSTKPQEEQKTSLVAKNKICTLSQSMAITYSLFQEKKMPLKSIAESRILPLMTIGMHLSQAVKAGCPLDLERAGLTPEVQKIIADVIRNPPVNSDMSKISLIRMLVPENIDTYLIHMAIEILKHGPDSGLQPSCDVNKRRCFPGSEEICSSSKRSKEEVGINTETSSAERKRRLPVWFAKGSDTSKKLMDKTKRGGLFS

In the case of `Cc1nc2cc(S(=O)(=O)N(C)c3cnc([C@@H]4CCC[C@H](C(=O)Nc5ccc(C(F)(F)F)cc5F)[C@H]4C(=O)O)cn3)ccc2n1C` (relative stereo) [Example 165, rel-(1R,2R,6S)-2-((2-fluoro-4-(trifluoromethyl)phenyl)carbamoyl)-6-(5-((N,1,2-trimethyl-1H-benzo[d]imidazole)-5-sulfonamido)pyrazin-2-yl)cyclohexane-1-carboxylic acid], in data set [1], the IC50 is 25.1 nM. For the same molecule, the CC50 in data set [2] is 25100 nM.

Regarding `Cc1nc2cc(S(=O)(=O)N(C)c3ccc([C@H]4C[C@@H](OCC5COC5)C[C@@H](C(=O)Nc5ccc(C(F)(F)F)cc5F)[C@@H]4C(=O)O)cc3)ccc2n1C` (relative stereo) [Example 282, rel-(1R,2R,4R,6S)-2-((2-fluoro-4-(trifluoromethyl)phenyl)carbamoyl)-4-(oxetan-3-ylmethoxy)-6-(4-((N,1,2-trimethyl-1H-benzo[d]imidazole)-5-sulfonamido)phenyl)cyclohexane-1-carboxylic acid], the IC50 in data set [1] was 1.58 nM. The CC50 in data set [2] was 63.1 nM.

With `COC12CC(CO[C@@H]3C[C@H](C(=O)Nc4ccc(C(F)(F)F)cc4F)[C@@H](C(=O)O)[C@H](c4ccc(N(C)S(=O)(=O)c5ccc6c(c5)nc(C)n6C)cc4)C3)(C1)C2` (relative stereo) [Example 331, rel-(1R,2R,4R,6S)-2-((2-fluoro-4-(trifluoromethyl)phenyl)carbamoyl)-4-((3-methoxybicyclo[1.1.1]pentan-1-yl)methoxy)-6-(4-((N,1,2-trimethyl-1H-benzo[d]imidazole)-5-sulfonamido)phenyl)cyclohexane-1-carboxylic acid], the IC50 in data set [1] is 251 nM. In addition, in data set [2], the CC50 is 20000 nM.

Consider `Cc1nc2cc(S(=O)(=O)N(C)c3ccc([C@@H]4C[C@H](N5CCOCC5)C[C@H](C(=O)Nc5ccc(C(F)(F)F)cc5F)[C@H]4C(=O)O)cc3)ccc2n1C` (relative stereo) [Example 338, rel-(1R,2R,4R,6S)-2-((2-fluoro-4-(trifluoromethyl)phenyl)carbamoyl)-4-morpholino-6-(4-((N,1,2-trimethyl-1H-benzo[d]imidazole)-5-sulfonamido)phenyl)cyclohexane-1-carboxylic acid], for which the IC50 in data set [1] is 79.4 nM. In addition, the CC50 in data set [2] was 15800 nM.

With `Cc1nc2cc(S(=O)(=O)N(C)c3ccc([C@H]4C[C@@H](N5CCCCC5)C[C@@H](C(=O)Nc5ccc(C(F)(F)F)cc5F)[C@@H]4C(=O)O)cc3)ccc2n1C` (relative stereo) [Example 348, rel-(1R,2R,4R,6S)-2-((2-fluoro-4-(trifluoromethyl)phenyl)carbamoyl)-4-(piperidin-1-yl)-6-(4-((N,1,2-trimethyl-1H-benzo[d]imidazole)-5-sulfonamido)phenyl)cyclohexane-1-carboxylic acid], the IC50 in data set [1] is 1.58 nM. In data set [2], the CC50 is 398 nM.

Consider `Cc1nc2cc(S(=O)(=O)N(C)c3ccc([C@H]4C[C@H](N5CCCCC5)C[C@@H](C(=O)Nc5ccc(C(F)(F)F)cc5F)[C@@H]4C(=O)O)cc3)ccc2n1C` (relative stereo) [Example 349, rel-(1R,2R,4S,6S)-2-((2-fluoro-4-(trifluoromethyl)phenyl)carbamoyl)-4-(piperidin-1-yl)-6-(4-((N,1,2-trimethyl-1H-benzo[d]imidazole)-5-sulfonamido)phenyl)cyclohexane-1-carboxylic acid], for which the IC50 in data set [1] is 251 nM. Further, the CC50 in data set [2] is 12600 nM.

For `Cc1nc2cc(S(=O)(=O)N(C)c3ccc([C@H]4C[C@@H](N5CC6(F)CC5C6)C[C@@H](C(=O)Nc5ccc(C(F)(F)F)cc5F)[C@@H]4C(=O)O)cc3)ccc2n1C` (relative stereo) [Example 398, rel-(1R,2R,4R,6S)-2-((2-fluoro-4-(trifluoromethyl)phenyl)carbamoyl)-4-(4-fluoro-2-azabicyclo[2.1.1]hexan-2-yl)-6-(4-((N,1,2-trimethyl-1H-benzo[d]imidazole)-5-sulfonamido)phenyl)cyclohexane-1-carboxylic acid], the IC50 in data set [1] was 100 nM. The CC50 in data set [2] is 25100 nM.

Turning to `Cc1nc2cc(S(=O)(=O)N(C)c3ccc([C@H]4CCC[C@H](C(=O)Nc5ccc(C(C)C)cc5)[C@@H]4C(=O)O)cc3)ccc2n1C` (single isomer, unassigned) [Example 73], in data set [1], the IC50 was 1.26 nM. The CC50 in data set [2] was 3980 nM.

As for `Cc1nc2cc(S(=O)(=O)N(C)c3ccc([C@H]4CCC[C@@H](C(=O)Nc5ccc(C(C)C)cc5)[C@H]4C(=O)O)cc3)ccc2n1C` (single isomer, unassigned) [Example 77], the IC50 in data set [1] was 3.98 nM. For the same molecule, the CC50 in data set [2] was 3980 nM.

For the molecule `Cc1nc2cc(S(=O)(=O)N(C)c3ccc([C@H]4CCC[C@@H](C(=O)Nc5ccc(C(C)C)cc5)[C@@H]4C(=O)O)cc3)ccc2n1C` (single isomer, unassigned) [Example 80], the IC50 in data set [1] was 1.58 nM. Further, the CC50 in data set [2] is 501 nM.

As for `Cc1nc2cc(S(=O)(=O)N(C)c3ccc([C@H]4CCC[C@@H](C(=O)Nc5ccc(C(F)(F)F)cc5F)[C@@H]4C(=O)O)cc3)ccc2n1C` (single isomer, unassigned) [Example 84], the IC50 in data set [1] was 158 nM. Moreover, the “SW48 pCC50” value in data set [2] (SW48 cell viability, 120 hours incubation) is 5.3.

`CN(c1ccc([C@H]2CCC[C@@H](C(=O)Nc3ccc(C(F)(F)F)cc3F)[C@@H]2C(=O)O)cc1)S(=O)(=O)c1ccc2[nH]cnc2c1` (single isomer, unassigned) [Example 86]: the IC50 in data set [1] is 1.58 nM. Also, in data set [2], the CC50 was 2510 nM.

For the molecule `Cc1nc2cc(S(=O)(=O)N(C)c3ccc([C@H]4CCC[C@@H](C(=O)Nc5ccc(C(F)(F)F)cc5F)[C@@H]4C(=O)O)cc3)ccc2[nH]1` (single isomer, unassigned) [Example 92], the IC50 in data set [1] was 1.58 nM. Besides, the CC50 in data set [2] is 794 nM.

Take `Cc1nc2cc(S(=O)(=O)N(C)c3ccc([C@H]4C[C@@H](O)C[C@@H](C(=O)Nc5ccc(C(F)(F)F)cc5F)[C@@H]4C(=O)O)cc3)ccc2n1C` (single isomer, unassigned) [Example 145]: the IC50 in data set [1] is 1.58 nM. For the same molecule, the CC50 in data set [2] is 1260 nM.

For the molecule `[2H]C([2H])([2H])O[C@@H]1C[C@H](c2ccc(N(C)S(=O)(=O)c3ccc4c(c3)nc(C)n4C)cc2)[C@@H](C(=O)O)[C@H](C(=O)Nc2ccc(C(F)(F)F)cc2F)C1` (single isomer, unassigned) [Example 147], the IC50 in data set [1] is 79.4 nM. In data set [2], the CC50 was 12600 nM.

`Cc1nc2cc(S(=O)(=O)N(C)c3ccc([C@H]4C[C@@H](Oc5ccccc5)C[C@@H](C(=O)Nc5ccc(C(F)(F)F)cc5F)[C@@H]4C(=O)O)cc3)ccc2n1C` (single isomer, unassigned) [Example 152]: the IC50 in data set [1] is 10 nM. Further, the CC50 in data set [2] is 2000 nM.

On to `Cc1nc2cc(S(=O)(=O)N(C)c3ccc([C@@H]4CCC[C@H](C(=O)Nc5ccc(C(F)(F)F)cc5F)[C@H]4C(=O)O)nc3)ccc2n1C` (single isomer, unassigned) [Example 160], for which, in data set [1], the IC50 is 50.1 nM. Moreover, in data set [2], the CC50 was 15800 nM.

`Cc1nc2cc(S(=O)(=O)N(C)c3ccc([C@@H]4CCC[C@H](C(=O)Nc5ccc(C(F)(F)F)cc5F)[C@H]4C(=O)O)cc3C#N)ccc2n1C` (single isomer, unassigned) [Example 162]: the IC50 in data set [1] is 2 nM. Moreover, in data set [2], the CC50 is 3160 nM.

Regarding `Cc1nc2cc(S(=O)(=O)N(C)c3cnc([C@H]4CCC[C@@H](C(=O)Nc5ccc(C(F)(F)F)cc5F)[C@@H]4C(=O)O)cn3)ccc2n1C` (single isomer, unassigned) [Example 164], the IC50 in data set [1] is 1.26 nM. In addition, the CC50 in data set [2] is 2510 nM.

In the case of `CN1CCC[C@H](c2cccc(S(=O)(=O)N(C)c3ccc([C@H]4CCC[C@@H](COc5ccc(C(F)(F)F)cc5)[C@@H]4C(=O)O)cc3)c2)C1` (single isomer, unassigned) [Example 217, rel-(1R,2S,6R)-2-(4-((N-methyl-3-((S*)-1-methylpiperidin-3-yl)phenyl)sulfonamido)phenyl)-6-((4-(trifluoromethyl)phenoxy)methyl)cyclohexane-1-carboxylic acid], the IC50 in data set [1] was 126 nM. In data set [2], the CC50 was 10000 nM.

For the molecule `CN1CCC[C@@H](c2cccc(S(=O)(=O)N(C)c3ccc([C@H]4CCC[C@@H](COc5ccc(C(F)(F)F)cc5)[C@@H]4C(=O)O)cc3)c2)C1` (single isomer, unassigned) [Example 218, rel-(1R,2S,6R)-2-(4-((N-methyl-3-((R*)-1-methylpiperidin-3-yl)phenyl)sulfonamido)phenyl)-6-((4-(trifluoromethyl)phenoxy)methyl)cyclohexane-1-carboxylic acid], the IC50 in data set [1] was 39.8 nM. Also, the CC50 in data set [2] was 15800 nM.

Take `CCO[C@@H]1C[C@H](COc2ccc(C(F)(F)F)cc2)[C@@H](C(=O)O)[C@H](c2ccc(N(C)S(=O)(=O)c3ccc4c(c3)nc(C)n4C)cc2)C1` (single isomer, unassigned) [Example 220]: the IC50 in data set [1] is 316 nM. In data set [2], the CC50 was 15800 nM.

On to `O=C(O)[C@@H]1[C@@H](C(=O)Nc2ccc(C(F)(F)F)cc2F)CCC[C@H]1c1ccc(NS(=O)(=O)c2ccc3[nH]cnc3c2)cc1` (single isomer, unassigned) [Example 225], for which the IC50 in data set [1] was 0.251 nM. Besides, the CC50 in data set [2] was 7940 nM.

With `N#Cc1cc([C@H]2CCC[C@@H](C(=O)Nc3ccc(C(F)(F)F)cc3F)[C@@H]2C(=O)O)ccc1Br` (single isomer, unassigned) [Example 230], the IC50 in data set [1] was 100 nM. Moreover, the CC50 in data set [2] was 7940 nM.

In the case of `Cc1nc2cc(S(=O)(=O)N(C)c3ccc([C@@H]4CC[C@H](C)[C@H](C(=O)Nc5ccc(C(F)(F)F)cc5F)[C@H]4C(=O)O)cc3)ccc2n1C` (single isomer, unassigned) [Example 236], the IC50 in data set [1] was 631 nM. In data set [2], the CC50 is 7940 nM.
